“And” between values parts separate entries of the source, which are not always exact repeats. Equal entries are not always repeated.
What was measured:
S. aureus ATCC25923 = test: MIC by microdilution, S. aureus ATCC25923; type: cell-based, Staphylococcus aureus; conditions: S. aureus ATCC25923 (MecA negative, wild-type), Mueller-Hinton broth, in duplicate
Procedure: (§1) The antibacterial profile of each derivative was evaluated by the standard microdilution method for susceptibility testing on 16 different strains, following the guidelines of CLSI. The selected panel included: • S. aureus ATCC25923 (MecA negative, wild-type) • S. aureus ATCC29213 (MecA negative, wild-type) • S. aureus ATCC700699 (MecA positive, glycopeptide resistant) • S. aureus ST20131365 (MecA positive, glycopeptide resistant) • S. epidermidis ATCC14990 (MecA negative, wild-type) • S. epidermidis ATCC35984 (MecA positive) • S. epidermidis ST20140436 (MecA positive, glycopeptide resistant) • S. epidermidis ST20150446 (MecA positive, glycopeptide resistant) • E. faecalis JH2-2 (wild-type) • E. faecalis UCN41 (VanA positive, glycopeptide resistant) • E. faecalis V583 (VanB positive, glycopeptide resistant) • E. faecium ATCC19434T (wild-type) • E. faecium BM4147 (VanA positive, glycopeptide resistant) • E. faecium AUS0004 (VanB positive, glycopeptide resistant) • E. coli ATCC25922 (wild-type) • Clostridium difficile ATCC9689 (wild-type)
(§2) Both series issued from the SAR study were evaluated for their antibacterial activity on a panel of characterized strains obtained from the French National Reference Centers for Staphylococci (Lyon, Pr. Fréderique Laurent) and for Enterococci (Caen, Pr. Vincent Cattoir), respectively. As shown in the following tables, both series contain very active compounds on multi-resistant Gram-positive bacteria (Minimal Inhibitory Concentrations lower than comparator antibiotic ampicillin). Furthermore, a very important antibacterial effect has been shown too on a strain of Clostridium difficile, a Gram-positive, spore-forming, bacillus responsible for post-antibiotic diarrhoae.
(§3) The antibacterial activity of test compounds was evaluated on a selected panel of Gram-positive (4 Staphylococcus aureus, 4 Staphylococcus epidermidis, 3 Enterococcus faecalis, 3 Enterococcus faecium, 1 Clostridium difficile) and Gram-negative strains (1 Escherichia coli, 1 Klebsiella pneumoniae, 1 Pseudomonas aeruginosa, 1 Acinetacter baumannii) with known features of antibiotic resistance (from wild-type susceptibility to multi-drug resistance). The Minimal Inhibitory Concentration (MIC) of test compounds was determined in duplicate by the microdilution method in 96-well microplates with a final volume of 100 μL per well and Mueller-Hinton broth as the growth medium, as recommended by the CLSI (Clinical and Laboratory Standards Institute, document Mo7-A10, USA).

S. aureus ATCC29213 = test: MIC by microdilution, S. aureus ATCC29213; type: cell-based, Staphylococcus aureus; conditions: S. aureus ATCC29213 (MecA negative, wild-type), Mueller-Hinton broth, in duplicate
Procedure: as §1, §2, §3

S. aureus ATCC700699 = test: MIC by microdilution, S. aureus ATCC700699; type: cell-based, Staphylococcus aureus; parameters: unit not given here; conditions: S. aureus ATCC700699 (MecA positive, glycopeptide resistant), in duplicate
Procedure: as §1, §2, §3

S. aureus ST20131365 = test: MIC by microdilution, S. aureus ST20131365; type: cell-based, Staphylococcus aureus; conditions: S. aureus ST20131365 (MecA positive, glycopeptide resistant), in duplicate
Procedure: as §1, §2, §3

S. epidermidis ATCC14990 = test: MIC by microdilution, S. epidermidis ATCC14990; type: cell-based, Staphylococcus epidermidis; conditions: S. epidermidis ATCC14990 (MecA negative, wild-type), in duplicate
Procedure: as §1, §2, §3

S. epidermidis ATCC35984 = test: MIC by microdilution, S. epidermidis ATCC35984; type: cell-based, Staphylococcus epidermidis; conditions: S. epidermidis ATCC35984 (MecA positive), in duplicate
Procedure: as §1, §2, §3

[1] = tested on: S. epidermidis ST20140436; test: MIC by microdilution, S. epidermidis ST20140436; type: cell-based, Staphylococcus epidermidis; conditions: S. epidermidis ST20140436 (MecA positive, glycopeptide resistant), in duplicate
Procedure: as §1, §2, §3

E. faecalis JH2-2 = test: MIC by microdilution, E. faecalis JH2-2; type: cell-based, Enterococcus faecalis; parameters: unit not given here; conditions: E. faecalis JH2-2 (wild-type), in duplicate
Procedure: as §1, §2, §3

E. faecalis UCN41 = test: MIC by microdilution, E. faecalis UCN41; type: cell-based, Enterococcus faecalis; parameters: unit not given here; conditions: E. faecalis UCN41 (VanA positive, glycopeptide resistant), in duplicate
Procedure: as §1, §2, §3

E. faecalis V583 = test: MIC by microdilution, E. faecalis V583; type: cell-based, Enterococcus faecalis; conditions: E. faecalis V583 (VanB positive, glycopeptide resistant), in duplicate
Procedure: as §1, §2, §3

E. faecium ATCC19434T = test: MIC by microdilution, E. faecium ATCC19434T; type: cell-based, Enterococcus faecium; parameters: unit not given here; conditions: E. faecium ATCC19434T (wild-type), in duplicate
Procedure: as §1, §2, §3

E. faecium BM4147 = test: MIC by microdilution, E. faecium BM4147; type: cell-based, Enterococcus faecium; parameters: unit not given here; conditions: E. faecium BM4147 (VanA positive, glycopeptide resistant), in duplicate
Procedure: as §1, §2, §3

E. faecium AUS0004 = test: MIC by microdilution, E. faecium AUS0004; type: cell-based, Enterococcus faecium; conditions: E. faecium AUS0004 (VanB positive, glycopeptide resistant), in duplicate
Procedure: as §1, §2, §3

E. coli ATCC25922 = test: MIC by microdilution, E. coli ATCC25922; type: cell-based, Escherichia coli; conditions: E. coli ATCC25922 (wild-type), in duplicate
Procedure: as §1, §2, §3

[2] = tested on: Clostridium difficile ATCC700057; test: MIC by microdilution, Clostridium difficile; type: cell-based; conditions: strain ATCC70057 [sic] (Tables 1-2) / ATCC700057 (Tables 3-10), in duplicate
[3] = tested on: panel of Gram-positive and Gram-negative strains; test: Antibacterial profile on the selected panel of strains; type: cell-based; conditions: summary of Tables 1-12
Procedure: as §1, §2, §3

[4] = tested on: S. epidermidis ST20150446; test: MIC by microdilution, S. epidermidis ST20150446; type: cell-based, Staphylococcus epidermidis; conditions: S. epidermidis ST20150446 (MecA positive, glycopeptide resistant), in duplicate
Procedure: as §1, §2, §3

| SMILES | Minimal Inhibitory Concentration (MIC) (S. aureus ATCC25923) | Minimal Inhibitory Concentration (MIC) (S. aureus ATCC29213) | Minimal Inhibitory Concentration (MIC) (S. aureus ATCC700699) | Minimal Inhibitory Concentration (MIC) (S. aureus ST20131365) | Minimal Inhibitory Concentration (MIC) (S. epidermidis ATCC14990) | Minimal Inhibitory Concentration (MIC) (S. epidermidis ATCC35984) | Minimal Inhibitory Concentration (MIC) [1] | Minimal Inhibitory Concentration (MIC) (E. faecalis JH2-2) | Minimal Inhibitory Concentration (MIC) (E. faecalis UCN41) | Minimal Inhibitory Concentration (MIC) (E. faecalis V583) | Minimal Inhibitory Concentration (MIC) (E. faecium ATCC19434T) | Minimal Inhibitory Concentration (MIC) (E. faecium BM4147) | Minimal Inhibitory Concentration (MIC) (E. faecium AUS0004) | Minimal Inhibitory Concentration (MIC) (E. coli ATCC25922) | Minimal Inhibitory Concentration (MIC) [2] | antimicrobial / antibacterial activity (in words) [3] | Minimal Inhibitory Concentration (MIC) [4] |
| --- | --- | --- | --- | --- | --- | --- | --- | --- | --- | --- | --- | --- | --- | --- | --- | --- | --- |
| CC[P+](CC)(CC)[Au-][c]1nn[nH]c1COC(=O)N[C@H](CC(=O)O)C(=O)O [TMB29] | 0.125 | 0.125 | 0.125 | 0.125 | ≤0.06 | ≤0.06 | ≤0.06 | 0.25 | 0.25 | 0.25 | 0.25 | 0.25 and 0.5 | 0.5 | >8 | ≤0.06 | have antimicrobial activity |  |
| CC[P+](CC)(CC)[Au-][c]1nn[nH]c1-c1ccc(C(=O)NC(C(=O)NC2C(=O)N3C2SC(C)(C)C3C(=O)O)c2ccccc2)cc1 (centres unmarked) [TMB22] | 0.125 | 0.125 | 0.125 and 0.25 | 0.25 | ≤0.06 |  |  | 0.5 | 1 | 0.5 | 1 | 1 | 1 | >8 | ≤0.06 | have antimicrobial activity |  |
| CC[P+](CC)(CC)[Au-][c]1nn[nH]c1-c1ccc(C(=O)O)cc1 [TMB14] | 0.125 | 0.125 | 0.125 | 0.125 and 0.25 | ≤0.06 | ≤0.06 |  | 0.5 | 0.5 and 1 | 1 | 0.5 | 0.5 | 0.5 | >8 | 0.125 | have antimicrobial activity |  |
| CC[P+](CC)(CC)[Au-][c]1nn[nH]c1-c1c(C)noc1C [TMB43] | ≤0.06 | 0.125 | 0.125 | 0.125 | ≤0.06 | ≤0.06 | 0.125 | 0.25 | 0.25 | 0.25 | 0.125 | 0.125 | 0.25 |  | 0.25 | have antimicrobial activity | ≤0.06 |
| CC[P+](CC)(CC)[Au-][c]1nn[nH]c1-c1ccc(C(=O)NC(C(=O)O)c2ccccc2)cc1 (centres unmarked) [TMB23] | ≤0.06 | 0.125 | 0.125 | 0.125 | ≤0.06 |  |  | 0.25 | 0.125 | 0.125 and 0.25 | 0.25 | 0.25 and 0.5 | 0.25 | >8 | ≤0.06 | have antimicrobial activity | ≤0.06 |
| CC[P+](CC)(CC)[Au-][c]1nn[nH]c1-c1cn[nH]c1 [TMB31] | ≤0.06 | ≤0.06 | 0.125 |  | ≤0.06 | ≤0.06 | ≤0.06 | 0.25 | 0.25 | 0.25 | 0.25 | 0.25 | 0.25 | >8 | ≤0.06 | have antimicrobial activity | ≤0.06 |
| CC[P+](CC)(CC)[Au-][c]1nn[nH]c1C1CCC(C(=O)O)CC1 (centres unmarked) [TMB25] |  | 0.25 | 0.25 |  | ≤0.06 | ≤0.06 |  | 0.125 | 0.125 | 0.125 | 0.125 | 0.125 | 0.125 | >8 | ≤0.06 | have antimicrobial activity | 0.125 and 0.25 |
| O=C(N[C@@H](C(=O)O)c1ccccc1)OCc1cnn[nH]1 [TMB41] | >8 | >8 | >8 | >8 | >8 | >8 | >8 | >8 | >8 | >8 | >8 | >8 | >8 |  | >8 | do not show an antibacterial activity | >8 |

Source: US20210284668A1, “GOLD (I)-PHOSPHINE 1,2,3-TRIAZOLE DERIVATIVES WITH ANTIBIOTIC PROPERTIES” (Centre National de la Recherche Scientifique, priority 2018, published 2021)
